Each block holds one molecule with its values, some of them ahead of it.
Target: hepatitis C virus RNA dependant polymerase (NS5B) (Hepatitis C virus genotype 1b, UniProt P26663)
Assay: Inhibition of NS5B RNA dependent RNA polymerase activity
Assay type: biochemical
Procedure: A suitable assay is described in the examples.
Inhibition of NS5B RNA Dependent RNA Polymerase Activity
The compounds of the invention were tested for inhibitory activity against the hepatitis C virus RNA dependant polymerase (NS5B), according to protocol described in WO 03/010141

Sequence of hepatitis C virus RNA dependant polymerase (NS5B) (P26663 2420-3010): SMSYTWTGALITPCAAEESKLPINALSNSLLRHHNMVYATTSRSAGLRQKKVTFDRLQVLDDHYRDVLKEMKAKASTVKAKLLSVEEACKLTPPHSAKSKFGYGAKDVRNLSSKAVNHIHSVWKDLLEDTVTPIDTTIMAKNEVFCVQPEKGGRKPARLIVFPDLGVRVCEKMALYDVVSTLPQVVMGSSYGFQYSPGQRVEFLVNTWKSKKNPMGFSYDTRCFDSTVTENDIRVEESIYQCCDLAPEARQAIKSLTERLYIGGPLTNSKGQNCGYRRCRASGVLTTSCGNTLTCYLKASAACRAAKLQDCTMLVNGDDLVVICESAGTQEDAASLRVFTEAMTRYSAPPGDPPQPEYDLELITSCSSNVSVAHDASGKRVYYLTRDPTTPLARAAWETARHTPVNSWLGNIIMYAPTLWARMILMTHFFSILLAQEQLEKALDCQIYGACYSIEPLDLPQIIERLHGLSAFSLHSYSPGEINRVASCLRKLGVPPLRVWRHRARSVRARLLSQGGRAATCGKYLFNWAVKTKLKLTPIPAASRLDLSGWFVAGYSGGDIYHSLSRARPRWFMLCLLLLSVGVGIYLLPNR

SMILES: Cc1c(C(=O)O)ccc2c(C3CCCCC3)c(-c3ccoc3)n(CC(=O)N3CCOCC3)c12 [Example 7005]
- IC50 (Table 7, class ranges): < 200 nM

SMILES: C[C@@H](NC(=O)c1ccc2c(C3CCCCC3)c(-c3ccoc3)n(CC(=O)N3CCC(N4CCCC4)CC3)c2c1)c1ccccc1 [Example 4005]
- IC50 (Table 4, class ranges): < 200 nM

SMILES: NC(=O)C1CCCN(C(=O)c2ccc3c(c2)c(C2CCCCC2)c(-c2ccoc2)n3CC(=O)N2CCC(N3CCCC3)CC2)C1 (stereo not shown) [Example 7017]
- IC50 (Table 7, class ranges): 1000 to 10000 nM

SMILES: CC(CNC(=O)c1ccc2c(C3CCCCC3)c(-c3ccoc3)n(CC(=O)N3CCN(C)CC3)c2c1)c1ccccc1 (stereo not shown) [Example 4024]
- IC50 (Table 4, class ranges): 1000 to 10000 nM

SMILES: CC(=O)NCCNC(=O)c1ccc2c(c1)c(C1CCCCC1)c(-c1ccoc1)n2CC(=O)N1CCC(N2CCCC2)CC1 [Example 7031]
- IC50 (Table 7, class ranges): 1000 to 10000 nM

SMILES: O=C(NC1(C(=O)O)CCCCC1)c1ccc2c(C3CCCCC3)c(-c3ccoc3)n(CC(=O)N3CCOCC3)c2c1 [Example 4078]
- IC50 (Table 4, class ranges): 200 to 1000 nM

SMILES: CN(C)C(=O)Cn1c(-c2ccco2)c(C2CCCCC2)c2ccc(C(=O)O)cc21 [Example 1031]
- IC50 (Table 1, HCV NS5B polymerase): < 200 nM

SMILES: COc1ccc([C@@H](C)NC(=O)c2ccc3c(C4CCCCC4)c(-c4ccoc4)n(CC(=O)N4CCOCC4)c3c2)cc1OC [Example 4063]
- IC50 (Table 4, class ranges): 200 to 1000 nM

SMILES: O=C(NC[C@H]1CC[C@H](C(=O)O)CC1)c1ccc2c(c1)c(C1CCCCC1)c(-c1ccoc1)n2CC(=O)N1CCC(N2CCCC2)CC1 [Example 7054]
- IC50 (Table 7, class ranges): 1000 to 10000 nM

SMILES: O=C(NS(=O)(=O)C(Cl)(Cl)Cl)c1ccc2c(C3CCCCC3)c(-c3ccoc3)n(CC(=O)N3CCOCC3)c2c1 [Example 2045]
- IC50 (Table 2, HCV NS5B polymerase): < 200 nM

SMILES: O=C(O)c1ccc2c(C3CCCC3)c(-c3ccccn3)n(CC(=O)N3CCCC3)c2c1 [Example 1086]
- IC50 (Table 1, HCV NS5B polymerase): 200 to 1000 nM

SMILES: Cc1cnc(CNC(=O)c2ccc3c(c2)c(C2CCCCC2)c(-c2ccoc2)n3CC(=O)N2CCC(N3CCCC3)CC2)cn1 [Example 7052]
- IC50 (Table 7, class ranges): 1000 to 10000 nM

SMILES: NC(=O)C1(NC(=O)c2ccc3c(C4CCCCC4)c(-c4ccoc4)n(CC(=O)N4CCOCC4)c3c2)CCCCC1 [Example 4079]
- IC50 (Table 4, class ranges): 200 to 1000 nM

SMILES: O=C(O)Cc1cccc(NC(=O)c2ccc3c(c2)c(C2CCCCC2)c(-c2ccoc2)n3CC(=O)N2CCC(N3CCCC3)CC2)c1 [Example 7055]
- IC50 (Table 7, class ranges): 1000 to 10000 nM

SMILES: CN(CCc1ccccn1)C(=O)c1ccc2c(c1)c(C1CCCCC1)c(-c1ccoc1)n2CC(=O)N1CCC(N2CCCC2)CC1 [Example 7020]
- IC50 (Table 7, class ranges): 1000 to 10000 nM

SMILES: CCN1CCCC1CNC(=O)c1ccc2c(c1)c(C1CCCCC1)c(-c1ccoc1)n2CC(=O)N1CCC(N2CCCC2)CC1 (stereo not shown) [Example 7013]
- IC50 (Table 7, class ranges): 1000 to 10000 nM

SMILES: CN1CCC(NC(=O)c2ccc3c(C4CCCC4)c(-c4ccoc4)n(CC(=O)N4CCOCC4)c3c2)(c2nc3ccc(C=CC(=O)O)cc3[nH]2)C1 (stereo not shown) [Example 4068]
- IC50 (Table 4, class ranges): < 200 nM

SMILES: O=C(O)c1ccc2c(C3CCCCC3)c(-c3ccco3)n(CC(=O)N3CCC(N4CCCC4)CC3)c2c1 [Example 1038]
- IC50 (Table 1, HCV NS5B polymerase): < 200 nM

Second part, the molecule after the results:

- IC50 (Table 4, class ranges): < 200 nM
SMILES: COc1ccc(CNC(=O)c2ccc3c(C4CCCCC4)c(-c4ccoc4)n(CC(=O)N4CCOCC4)c3c2)cc1OC [Example 4006]

- IC50 (Table 2, HCV NS5B polymerase): < 200 nM
SMILES: O=C(NS(=O)(=O)c1ccc(F)cc1)c1ccc2c(C3CCCCC3)c(-c3ccoc3)n(CC(=O)N3CCOCC3)c2c1 [Example 2015]

- IC50 (Table 2, HCV NS5B polymerase): < 200 nM
SMILES: O=C(NS(=O)(=O)c1ccccc1Cl)c1ccc2c(C3CCCCC3)c(-c3ccoc3)n(CC(=O)N3CCOCC3)c2c1 [Example 2012]

- IC50 (Table 1, HCV NS5B polymerase): < 200 nM
SMILES: O=C(O)c1ccc2c(C3CCCCC3)c(-c3ccoc3)n(CC(=O)N3CCOCC3)c2c1 [Example 1097]

- IC50 (Table 1, HCV NS5B polymerase): 200 to 1000 nM
SMILES: NC(=O)Cn1c(-c2ccoc2)c(C2CCCCC2)c2ccc(C(=O)O)cc21 [Example 1065]

- IC50 (Table 1, HCV NS5B polymerase): < 200 nM
SMILES: CC(C)(NC(=O)Cn1c(-c2ccoc2)c(C2CCCCC2)c2ccc(C(=O)O)cc21)C(=O)Nc1ccc(-c2nc(C(=O)O)cs2)cc1 [Example 1052]

- IC50 (Table 1, HCV NS5B polymerase): 200 to 1000 nM
SMILES: NS(=O)(=O)c1ccc(CNC(=O)Cn2c(-c3ccoc3)c(C3CCCCC3)c3ccc(C(=O)O)cc32)cc1 [Example 1069]

- IC50 (Table 4, class ranges): 200 to 1000 nM
SMILES: CN1CCN(C(=O)Cn2c(-c3ccoc3)c(C3CCCCC3)c3ccc(C(=O)NCC(=O)c4ccccc4)cc32)CC1 [Example 4031]

- IC50 (Table 4, class ranges): 200 to 1000 nM
SMILES: CN1CCN(C(=O)Cn2c(-c3ccoc3)c(C3CCCCC3)c3ccc(C(=O)NCC(O)c4ccccc4)cc32)CC1 (stereo not shown) [Example 4023]

- IC50 (Table 1, HCV NS5B polymerase): < 200 nM
SMILES: CN(C)C(=O)Cn1c(-c2ccoc2)c(C2CCCC2)c2ccc(C(=O)O)cc21 [Example 1044]

- IC50 (Table 1, HCV NS5B polymerase): < 200 nM
SMILES: CC1CN(C(=O)Cn2c(-c3ccoc3)c(C3CCCCC3)c3ccc(C(=O)O)cc32)CC(C)O1 (stereo not shown) [Example 1020]

- IC50 (Table 1, HCV NS5B polymerase): 200 to 1000 nM
SMILES: COCCNC(=O)Cn1c(-c2ccoc2)c(C2CCCCC2)c2ccc(C(=O)O)cc21 [Example 1107]

- IC50 (Table 1, HCV NS5B polymerase): 200 to 1000 nM
SMILES: CC(C)(C)C(=O)Cn1c(-c2ccoc2)c(C2CCCCC2)c2ccc(C(=O)O)cc21 [Example 1001]

- IC50 (Table 1, HCV NS5B polymerase): 200 to 1000 nM
SMILES: CN(Cc1cccnc1)C(=O)Cn1c(-c2ccoc2)c(C2CCCCC2)c2ccc(C(=O)O)cc21 [Example 1114]

- IC50 (Table 1, HCV NS5B polymerase): < 200 nM
SMILES: CCN(CC)CCN(CC)C(=O)Cn1c(-c2ccoc2)c(C2CCCCC2)c2ccc(C(=O)O)cc21 [Example 1007]

- IC50 (Table 1, HCV NS5B polymerase): < 200 nM
SMILES: CC(=O)NNC(=O)Cn1c(-c2ccoc2)c(C2CCCCC2)c2ccc(C(=O)O)cc21 [Example 1110]
